According to patent publication US20220073525A1, “COMPOSITIONS FOR INHIBITING UBIQUITIN SPECIFIC PROTEASE 1” (FORMA Therapeutics, Inc., priority 2019, published 2022):

Biological target: USP1 (Homo sapiens, UniProt O94782)
Assay: Biochemical Assay for USP1 Inhibition (Ub-Rho 110 fluorescence)
Settings: Table 5; 30 min preincubation, Enzyme 0.025 nM, Substrate Ub-Rho 110 25 nM; read-out: IC50 (μm)
Summary of the method: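 USP1 at 0.025 nM, preincubated 30 min with compound (25 μM to 1.3 nM, 10-point), then Ub-Rho 110 at 25 nM (<<Km) in Tris-HCl pH 8.0, 1 mM GSH, 0.03% BGG, 0.01% Triton X-100. Fluorescence read kinetically over 11 min; % inhibition versus no-enzyme and DMSO controls, IC50 from 4-parameter logistic fit.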

Sequence of USP1 (O94782 whole entry): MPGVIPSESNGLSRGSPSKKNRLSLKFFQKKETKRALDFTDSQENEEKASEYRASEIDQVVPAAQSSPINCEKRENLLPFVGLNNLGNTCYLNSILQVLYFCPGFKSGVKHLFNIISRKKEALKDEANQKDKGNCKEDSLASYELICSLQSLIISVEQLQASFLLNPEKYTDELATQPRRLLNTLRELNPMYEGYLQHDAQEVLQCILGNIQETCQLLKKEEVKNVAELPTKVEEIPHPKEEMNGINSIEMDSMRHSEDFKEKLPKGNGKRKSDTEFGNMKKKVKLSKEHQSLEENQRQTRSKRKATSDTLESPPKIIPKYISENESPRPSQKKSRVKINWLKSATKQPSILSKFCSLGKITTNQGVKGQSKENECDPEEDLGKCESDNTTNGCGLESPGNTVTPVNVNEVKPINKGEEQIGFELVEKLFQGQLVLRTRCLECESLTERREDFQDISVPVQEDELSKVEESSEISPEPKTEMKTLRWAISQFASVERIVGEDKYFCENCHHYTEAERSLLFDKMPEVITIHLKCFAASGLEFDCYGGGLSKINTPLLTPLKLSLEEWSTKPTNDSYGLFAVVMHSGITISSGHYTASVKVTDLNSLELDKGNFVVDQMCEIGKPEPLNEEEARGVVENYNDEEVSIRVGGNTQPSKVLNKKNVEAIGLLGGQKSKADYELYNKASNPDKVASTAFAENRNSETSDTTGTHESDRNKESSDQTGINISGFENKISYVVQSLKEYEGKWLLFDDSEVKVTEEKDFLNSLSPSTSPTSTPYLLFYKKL
Sequence of USP1 (Q8TAF3 whole entry partner): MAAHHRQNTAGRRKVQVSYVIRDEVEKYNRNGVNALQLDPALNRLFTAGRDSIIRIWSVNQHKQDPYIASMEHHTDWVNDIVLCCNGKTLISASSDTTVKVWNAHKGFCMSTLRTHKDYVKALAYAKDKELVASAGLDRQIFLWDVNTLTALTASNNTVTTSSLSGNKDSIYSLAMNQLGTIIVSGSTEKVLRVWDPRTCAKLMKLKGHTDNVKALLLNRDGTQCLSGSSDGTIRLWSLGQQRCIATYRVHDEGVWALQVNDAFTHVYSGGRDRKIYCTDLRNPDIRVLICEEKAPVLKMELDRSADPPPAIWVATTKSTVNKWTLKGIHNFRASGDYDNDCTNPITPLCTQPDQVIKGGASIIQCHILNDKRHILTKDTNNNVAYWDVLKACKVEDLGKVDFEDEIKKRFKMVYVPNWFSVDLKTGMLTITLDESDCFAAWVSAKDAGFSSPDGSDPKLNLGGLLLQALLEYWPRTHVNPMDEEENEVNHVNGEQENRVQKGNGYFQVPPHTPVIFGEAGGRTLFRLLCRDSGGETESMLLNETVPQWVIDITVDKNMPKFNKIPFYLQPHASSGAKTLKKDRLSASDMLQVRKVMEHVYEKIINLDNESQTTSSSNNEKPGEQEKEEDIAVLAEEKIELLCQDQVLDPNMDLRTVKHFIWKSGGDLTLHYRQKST

Structure (SMILES)	IC50 [µM]
Cc1nc(-c2cccnc2C(C)C)c2n1CCN(c1ccc(C3COC(=O)N3)cc1)C2 (centres unmarked) [Compound 37, 4-(4-{3-methyl-1-[2-(propan-2-yl)pyridin-3-yl]-5H,6H,7H,8H-imidazo[1,5-a]pyrazin-7-yl}phenyl)-1,3-oxazolidin-2-one]	> 25
Cc1ccn(-c2ccc(N3CCn4c(C)nc(-c5cccnc5C(C)C)c4C3)cc2)n1 [Compound 31, 3-{3-methyl-7-[4-(3-methyl-1H-pyrazol-1-yl)phenyl]-5H,6H,7H,8H-imidazo[1,5-a]pyrazin-1-yl}-2-(propan-2-yl)pyridine]	≤ 1
Cc1nc(-c2cccnc2C(C)C)c2n1CCN(c1cccc3[nH]ccc13)C2 [Compound 12, 4-{3-methyl-1-[2-(propan-2-yl)pyridin-3-yl]-5H,6H,7H,8H-imidazo[1,5-a]pyrazin-7-yl}-1H-indole]	> 25
Cc1cn(C)c(-c2ccc(N3CCn4c(C)nc(-c5cccnc5C(C)C)c4C3)cc2)n1 [Compound 77, 3-{7-[4-(1,4-dimethyl-1H-imidazol-2-yl)phenyl]-3-methyl-5H,6H,7H,8H-imidazo[1,5-a]pyrazin-1-yl}-2-(propan-2-yl)pyridine]	≤ 1
Cc1nc(-c2cccnc2C(C)C)c2n1CCN(c1ccc(C3CCCNC3=O)cc1)C2 (centres unmarked) [Compound 29, 3-(4-{3-methyl-1-[2-(propan-2-yl)pyridin-3-yl]-5H,6H,7H,8H-imidazo[1,5-a]pyrazin-7-yl}phenyl)piperidin-2-one]	> 25
Cc1nc(-c2cccnc2C(C)C)c2n1CCN(c1ccc(C#N)cc1)C2 [Compound 6, 4-{3-methyl-1-[2-(propan-2-yl)pyridin-3-yl]-5H,6H,7H,8H-imidazo[1,5-a]pyrazin-7-yl}benzonitrile]	> 25
CC(C)c1ncccc1-c1nc(C2CC2)n2c1CN(c1ccc(-c3nc(C(F)(F)F)cn3C)cc1)CC2 [Compound 24, 3-(3-cyclopropyl-7-{4-[1-methyl-4-(trifluoromethyl)-1H-imidazol-2-yl]phenyl}-5H,6H,7H,8H-imidazo[1,5-a]pyrazin-1-yl)-2-(propan-2-yl)pyridine]	≤ 1
Cc1nc(-c2cccnc2C(C)C)c2n1CCN(c1cnc(C#N)nc1)C2 [Compound 83, 5-{3-methyl-1-[2-(propan-2-yl)pyridin-3-yl]-5H,6H,7H,8H-imidazo[1,5-a]pyrazin-7-yl}pyrimidine-2-carbonitrile]	> 25
Cc1nc(-c2cccnc2C(C)C)c2n1CCN(c1ccc(-n3ccnn3)cc1)C2 [Compound 33, 3-{3-methyl-7-[4-(1H-1,2,3-triazol-1-yl)phenyl]-5H,6H,7H,8H-imidazo[1,5-a]pyrazin-1-yl}-2-(propan-2-yl)pyridine]	10 to 25
Cc1nc(-c2cccnc2OC(F)F)c2n1CC(C)N(c1ccc(-c3nc(C(F)(F)F)cn3C)cc1)C2 (single isomer, unassigned) [Compound 27-1, 2-(difluoromethoxy)-3-[-3,6-dimethyl-7-{4-[1-methyl-4-(trifluoromethyl)-1H-imidazol-2-yl]phenyl}-5H,6H,7H,8H-imidazo[1,5-a]pyrazin-1-yl]pyridine]	≤ 1
Cc1nc(-c2cccnc2C(C)C)c2n1CCN(c1ccc(-c3nc(C(F)(F)F)cn3C)cn1)C2 [Compound 13, 2-{3-methyl-1-[2-(propan-2-yl)pyridin-3-yl]-5H,6H,7H,8H-imidazo[1,5-a]pyrazin-7-yl}-5-[1-methyl-4-(trifluoromethyl)-1H-imidazol-2-yl]pyridine]	≤ 1
